One test has as its system RAJI lymphoma cells. Put plainly: MTS cell viability IC50 assay. It counts as cell-based. The note with it: Homo sapiens, Raji, 72 h. On the procedure: Cytotoxicity Results in Raji Non-Hodgkin's Lymphoma Cells. MTS experiments were then conducted to test the anti-proliferative effects of 7-aza-8,9-methylenedioxyindenoisoquinolines in Raji cells. Cells were incubated at 2-2000 nM of each drug for 72 h, and cell viabilities were quantified using the MTS assay. […] This potency trend generally correlated with the western blot results, in which G106 and G108 […] show weaker Myc downregulation.
(§1) MTS Cell Viability IC50 Assay. Drug solutions for MTS IC50 assays of suspension cell lines were made from DMSO stocks by serial-dilutions in 1×PBS (10010-031, Gibco). To set up treatments, drug solutions were plated in triplicates to 96-well tissue culture plates, to which cell-containing media was added to a total volume of 100 μL/well. 100%-viability controls were untreated cells. 2000 cells/well were plated for all suspension cell lines except 3000 cells/well for KMS-27 and 10000 cells/well for CHLA-32. Blanks were cell-free media. Drug treatments were maintained for 72 hr at 37° C. with 5% CO2. To quantify cells, CellTiter 96 AQueous MTS Reagent Powder (G1111, Promega) was dissolved and mixed with phenazine methosulfate (PMS, Sigma-Aldrich P9625) according to manufacturer's instructions. MTS/PMS mix ([…]) was added to treatment wells, 100%-viability control wells, and blank wells. Colors were developed at 37° C. with 5% CO2 for 4 h and absorbance at 490 nm was measured by BioTek Synergy 4 system. To obtain %-viability, A490 values were corrected by blank subtraction, normalized to 100%-viability control, and averaged. Average %-viabilities were plotted against drug dosages to obtain dose-response curves. […] For adherent cell lines, the MTS IC50 assays were conducted the same way as for suspension cell lines except for cell plating and drug treatment. For cell plating, 50 μL of 2000 cells were plated in triplicates to a 96-well tissue culture plate. Cells were allowed sufficient time to become adherent. Serial-diluted drug solutions were made the same way as in the MTS IC50 assays. To set up treatments, drug solutions were mixed with media to two-fold of the final concentrations, and 50 μL of such drug-media mix was then added to 50 μL of plated cells.

For test [1], the target named is 3′-TAMRA-labeled MycG4 DNA. Put plainly: Fluorescence binding assay. To be noted: 20° C., 100 mM K+ buffer, pH 7.0; read-out: Apparent Binding Affinity Kd, app.
Description: Binding Affinity to the Myc G-Quadruplex. Binding affinity of eight 7-aza-8,9-methylenedioxyindenoisoquinolines to MycG4 was determined using a fluorescence binding assay with a 3′-TAMRA-labeled MycG4 DNA. Monitoring TAMRA emission upon drug titration afforded binding isotherms, from which apparent binding affinities, Kd,app, were derived.
Fluorescence-Based Binding Assays. Fluorescence-based binding assays were performed on a Jasco FP-8300 spectrofluorometer equipped with a temperature controller at 20° C. in a quartz cuvette with a 10 mm path length. 3′-TAMRA-labeled MycG4 DNA (Sigma-Aldrich) was diluted to 20 nM using a 75 mM KCl/25 mM potassium phosphate buffer, pH 7.0. […] Fluorescence intensity at 580 nm, the maximum for the free DNA, was plotted against drug:DNA ratio. The apparent binding dissociation constant, Kd,app, was derived for the binding of each compound. Using OriginPro software (OriginLab Corp., United States) the change in fluorescence intensity was fitted to a one-site binding equation,
where B0 is the initial fluorescence intensity, B is maximum change in fluorescence intensity, R is DNA concentration, and L is drug:DNA ratio.
A further test concerns THP-1. Put plainly: MTS GI50, Myc-dependent panel. To be noted: Homo sapiens, THP-1, 72 h; read-out: GI50. It counts as cell-based. How it is done:
(§2) Cytotoxicity Results in Myc-dependent Cancer Cell Lines.
as §1

Another test concerns CCRF-CRM. In words: MTS GI50, Myc-dependent panel. It counts as cell-based. To be noted: CCRF-CRM, 72 h; read-out: GI50. How it is done:
as §2, §1

Another test has as its system MDA-MB-231. Put plainly: MTS GI50, Myc-dependent panel. It counts as cell-based. To be noted: Homo sapiens, MDA-MB-231, 72 h; read-out: GI50. On the procedure: as §2, §1
In a further test the test system is L-363. In words: MTS GI50, Myc-dependent panel. It counts as cell-based. To be noted: Homo sapiens, L-363, 72 h; read-out: GI50. How it is done:
as §2, §1

The test system of the next test is MOLT-4. Put plainly: MTS GI50, Myc-dependent panel. It counts as cell-based. The note with it: Homo sapiens, MOLT-4, 72 h; read-out: GI50. On the procedure: as §2, §1
The next test has as its system KMS-27. Put plainly: MTS GI50, Myc-dependent panel. It counts as cell-based. The note with it: KMS-27, 72 h; read-out: GI50. How it is done:
as §2, §1

A further test deals with MCF-7. In words: MTS GI50, Myc-dependent panel. To be noted: Homo sapiens, MCF7; MCF-7, 72 h; read-out: GI50. It counts as cell-based. How it is done: as §2, §1
Another test deals with TC-106. In words: MTS GI50, Myc-dependent panel. It counts as cell-based. The note with it: TC-106, 72 h; read-out: GI50. How it is done:
as §2, §1

The next test has as its system RD-ES. In words: MTS GI50, Myc-dependent panel. It counts as cell-based. To be noted: 72 h, read-out: GI50. On the procedure:
as §2, §1

The subject of another test is CHLA-32. In words: MTS GI50, Myc-dependent panel. It counts as cell-based. To be noted: CHLA-32, 72 h; read-out: GI50. On the procedure: as §2, §1
The subject of a further test is RS4;11. In words: MTS GI50, Myc-dependent panel. To be noted: Homo sapiens; RS4;11, 72 h; read-out: GI50. It counts as cell-based. How it is done:
as §2, §1

The test system of the next test is K-562. Put plainly: MTS GI50, Myc-dependent panel. It counts as cell-based. The note with it: Homo sapiens, K562; K-562, 72 h; read-out: GI50. On the procedure:
as §2, §1

In a further test the test system is HL-60. Put plainly: MTS GI50, Myc-dependent panel. It counts as cell-based. To be noted: Homo sapiens, HL-60, 72 h; read-out: GI50. How it is done:
as §2, §1

The subject of the next test is CHLA-99. Put plainly: MTS GI50, Myc-dependent panel. It counts as cell-based. The note with it: CHLA-99, 72 h; read-out: GI50. How it is done:
as §2, §1

Another test concerns TC-32. Put plainly: MTS GI50, Myc-dependent panel. It counts as cell-based. The note with it: Homo sapiens, TC-32, 72 h; read-out: GI50. How it is done:
as §2, §1

Another test deals with TC-71. Put plainly: MTS GI50, Myc-dependent panel. To be noted: TC-71, 72 h; read-out: GI50. It counts as cell-based. How it is done:
as §2, §1

A further test concerns ARD. In words: MTS GI50, Myc-dependent panel. It counts as cell-based. The note with it: ARD, 72 h; read-out: GI50. How it is done:
as §2, §1

The next test has as its system RPMI-8226. Put plainly: MTS GI50, Myc-dependent panel. To be noted: Homo sapiens, RPMI-8226, 72 h; read-out: GI50. It counts as cell-based. On the procedure:
as §2, §1

Another test has as its system SK-N-MC. In words: MTS GI50, Myc-dependent panel. It counts as cell-based. The note with it: Homo sapiens, 72 h, read-out: GI50. On the procedure: as §2, §1
The test system of another test is AMO-1. In words: MTS GI50, Myc-dependent panel. It counts as cell-based. To be noted: Homo sapiens, AMO1; AMO-1, 72 h; read-out: GI50. On the procedure: as §2, §1
The test system of the next test is Kasumi-1. Put plainly: MTS GI50, Myc-dependent panel. It counts as cell-based. To be noted: Homo sapiens; Kasumi-1, 72 h; read-out: GI50. How it is done: as §2, §1

Molecules are shown by their SMILES.

As usually defined, the IC50 is the concentration that gives 50% inhibition. One may read the GI50 as the concentration that inhibits growth by half. On to `COc1cc2c3c(n(CCCN4CCOCC4)c(=O)c2cc1OC)-c1nc2c(cc1C3=O)OCO2` [G101, 2,3-Dimethoxy-6-(3-morpholinopropyl)-5H-[1,3]dioxolo[4″,5″:5′,6′]pyrido[3′,2′:4,5]cyclopenta[1,2-c]isoquinoline-5,12(6H)-dione], for which the IC50 in the test on RAJI lymphoma cells stood at 340 nM. The Kd in test [1] came to 249 nM. Further, the GI50 in the test with THP-1 is 1320 nM; with CCRF-CRM it was 248 nM; in the test with MDA-MB-231 it was over 2000 nM; in the test on L-363, 342 nM; with MOLT-4, 113 nM; in the test with KMS-27, 530 nM. For the same compound, the concentration for 50% growth inhibition (GI50) with MCF-7 was over 2000 nM; in the test on TC-106, 848 nM; in the test with RD-ES, 608 nM; in the test on CHLA-32, 708 nM; in the test on RS4;11, 283 nM; in the test with K-562, 1010 nM. The GI50 in the test on HL-60 is over 2000 nM; with CHLA-99 it was 526 nM; with TC-32 it was 569 nM; in the test with TC-71, 756 nM; in the test on ARD, 190 nM; in the test on RPMI-8226, 905 nM. The GI50 was 698 nM in the test on SK-N-MC, 1220 nM with AMO-1 and over 2000 nM with Kasumi-1.
Consider `COc1cc2c3c(n(CCCn4ccnc4)c(=O)c2cc1OC)-c1nc2c(cc1C3=O)OCO2` [G102, 6-(3-(1H-Imidazol-1-yl)propyl)-2,3-dimethoxy-5H-[1,3]dioxolo[4″,5″:5′,6′]pyrido[3′,2′:4,5]cyclopenta[1,2-c]isoquinoline-5,12(6H)-dione], for which the IC50 in the test with RAJI lymphoma cells worked out at 153 nM. Moreover, the Kd in test [1] was 147 nM. Further, the GI50 worked out at 1020 nM in the test on THP-1; 117 nM in the test with CCRF-CRM; 1050 nM in the test on MDA-MB-231; 232 nM with L-363; 43 nM in the test on MOLT-4; 238 nM with KMS-27. The GI50 with MCF-7 is over 2000 nM; in the test on TC-106, 229 nM; with RD-ES it was 180 nM; with CHLA-32 it was 280 nM; with RS4;11, 120 nM; in the test with K-562, 580 nM. Besides, the GI50 in the test with HL-60 was over 2000 nM; in the test on CHLA-99, 265 nM; in the test with TC-32, 127 nM; in the test with TC-71, 199 nM; in the test with ARD, 111 nM; in the test on RPMI-8226 it was 481 nM. In addition, the GI50 in the test on SK-N-MC is 170 nM; with AMO-1, 804 nM; in the test with Kasumi-1, over 2000 nM.
Consider `COc1cc2c3c(n(CCCN4CCOCC4)c(=O)c2cc1OC)-c1cc2c(cc1C3=O)OCO2` [LMP400, indotecan], for which the half-inhibitory concentration (IC50) in the test with RAJI lymphoma cells turned out to be 190 nM. For the same compound, the Kd in [1] was 301 nM. In addition, the GI50 with THP-1 came to 915 nM; in the test on CCRF-CRM, 316 nM; in the test on MDA-MB-231 it was 1900 nM; in the test on L-363, 214 nM; in the test with MOLT-4, 239 nM; in the test with KMS-27, 543 nM. The GI50 in the test with MCF-7 was over 2000 nM; in the test with TC-106 it was 605 nM; in the test with RD-ES, 472 nM; in the test on CHLA-32, 812 nM; with RS4;11, 336 nM; in the test on K-562, 864 nM. Further, the GI50 in the test with HL-60 worked out at 1390 nM; with CHLA-99, 773 nM; in the test on TC-32, 574 nM; in the test with TC-71, 1060 nM; with ARD, 126 nM; in the test with RPMI-8226, 989 nM. Moreover, the GI50 in the test on SK-N-MC was 1050 nM; with AMO-1, 738 nM; in the test on Kasumi-1, over 2000 nM.

Values taken from patent US20240287089A1, “Preparation and Uses of 7-Azaindenoisoquinolines” (Purdue Research Foundation, priority 0001, published 2024).
